The record followed here is publication PMC7761830, “Structure-Based Virtual Screening of Ultra-Large Library Yields Potent Antagonists for a Lipid GPCR” (Biomolecules, 2020).

In one assay the target is T1, wild-type CysLT1R (Homo sapiens, UniProt Q9Y271).
T1 construct: expressed in transfected cells; host or cells: HEK293 (ATCC CRL-1573), transient transfection with Lipofectamine 3000
T1 sequence (Q9Y271 1-337): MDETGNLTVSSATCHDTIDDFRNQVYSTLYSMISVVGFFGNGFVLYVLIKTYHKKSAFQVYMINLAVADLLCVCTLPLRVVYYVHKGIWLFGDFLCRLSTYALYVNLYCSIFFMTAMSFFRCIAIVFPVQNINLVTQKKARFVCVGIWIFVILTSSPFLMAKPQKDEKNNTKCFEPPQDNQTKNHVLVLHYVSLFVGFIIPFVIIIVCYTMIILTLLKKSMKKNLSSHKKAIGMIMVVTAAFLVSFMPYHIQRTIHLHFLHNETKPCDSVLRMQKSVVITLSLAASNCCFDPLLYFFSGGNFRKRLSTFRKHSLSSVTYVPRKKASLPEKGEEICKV
Description: IP1 production assay, antagonist mode, co-stimulation with EC80 LTD4. The format is cell-based. As for the experimental part: (§1) For this assay, we used the Cisbio IP-One kit as previously described. […] At 48 h post-transfection, the media was removed and the cells were washed with fresh Hank’s Balanced Salt Solution (HBSS). […] After compound stimulation, the cells were incubated for 1 h at 37 °C and stimulated with IP1-D2 and Ab-Crypt reagents in Lysis Buffer. The cells were then incubated at room temperature for an additional hour. […] Normalized data were plotted using either the three-parameter or four-parameter EC50/IC50 fits of GraphPad Prism 8 (San Diego). […] Data represent the means ± SEM of at least three independent experiments performed in quadruplicate.

The next assay deals with T2, wild-type CysLT2R (Homo sapiens, UniProt Q9NS75).
T2 construct: expressed in transfected cells; host or cells: HEK293 (ATCC CRL-1573), transient transfection with Lipofectamine 3000
T2 sequence (Q9NS75 1-346): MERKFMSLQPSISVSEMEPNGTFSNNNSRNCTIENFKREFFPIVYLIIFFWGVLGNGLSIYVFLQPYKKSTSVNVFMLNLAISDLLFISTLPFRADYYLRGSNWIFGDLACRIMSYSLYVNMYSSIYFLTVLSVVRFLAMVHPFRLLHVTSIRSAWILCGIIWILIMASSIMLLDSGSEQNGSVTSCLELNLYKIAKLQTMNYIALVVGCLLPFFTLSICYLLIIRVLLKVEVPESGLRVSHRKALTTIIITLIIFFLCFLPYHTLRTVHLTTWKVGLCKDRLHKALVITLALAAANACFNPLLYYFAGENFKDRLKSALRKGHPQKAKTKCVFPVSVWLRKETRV
Described as above. The format is cell-based. The following applies: for inhibition at 30 µM: HEK293, compound 30 µM, LTD4 at EC80, HEK293, wild-type CysLT2R, read-out: inhibition of LTD4-induced IP1 production, single-concentration screen; for Emax: HEK293, read-out: CysLT2R (LTD4) % Max Inhibition ± SEM. The method, then:
as §1

As for `CC(=O)c1cc2c(cc1NC(=O)COc1ccc(Cl)cc1C(N)=O)OCO2` [BRI-12343], the remaining activity at 30 µM at wild-type CysLT1R is 73.7%; on wild-type CysLT2R, 88.9%.
The corresponding values for `CC(Sc1n[nH]c(=O)n1C1CC1)C(=O)c1c[nH]c2ccccc12` (centres unmarked) [BRI-12342] are 71.7% and 81.2%.
In the same order, the values of `O=C(O)c1cc(S(=O)(=O)NCCc2ccc(Cl)cc2)ccc1O` [BRI-12352] are 73.4% and 87.8%.
Consider `O=C(O)CNC(=O)c1ccc(NS(=O)(=O)c2cccs2)cc1` [BRI-12323], for which the remaining activity at 30 µM at wild-type CysLT1R came out at 80.5%; on wild-type CysLT2R it was 100%.
On to `O=C(NCC(F)(F)F)c1cccc(NC(=O)C2C3C=CC(C3)C2C(=O)O)c1` (centres unmarked) [BRI-12346], for which the remaining activity at 30 µM on wild-type CysLT1R is 66.6%; at wild-type CysLT2R it was 90.6%.
In the case of `O=C(Nc1cnc2[nH]ccc2c1)c1cnc2c(c1)c(=O)[nH]c(=O)n2Cc1ccccc1` [BRI-12401], the remaining activity at 30 µM on wild-type CysLT1R came to 89.5%. For the same molecule, on wild-type CysLT2R, the remaining activity at 30 µM was determined as 35.6%, the inhibition at 30 µM was at least 50% and the Emax came to 19 ± 15%.
Take `O=C(O)CCC(NC(=O)c1cccc(C(F)(F)F)c1)c1ccccc1` (centres unmarked) [BRI-12412]: the remaining activity at 30 µM was found to be 91.4% at wild-type CysLT1R and 63.4% on wild-type CysLT2R.
For the molecule `O=C(NC1CCCC1)c1ccc(NC(=O)C2C3C=CC(C3)C2C(=O)O)cc1` (centres unmarked) [BRI-12321], the remaining activity at 30 µM at wild-type CysLT1R is 87.8%; at wild-type CysLT2R, 95.1%.
The corresponding values for `CCc1ccc(CN(C)S(=O)(=O)c2[nH]ncc2C(=O)O)cc1` [BRI-12470] are 81% and 58.6%.
Regarding `Cc1ccc2ncc(C(=O)NC3CN(C(=O)c4cc(C(N)=O)cs4)C3)n2c1` [BRI-12466], the remaining activity at 30 µM on wild-type CysLT1R is 67.7%. In addition, at wild-type CysLT2R, the remaining activity at 30 µM was 39%, the inhibition at 30 µM is at least 50% and the Emax is 12 ± 6%.
As to `O=C(O)CNS(=O)(=O)c1ccc(-c2ccc3c(c2)CCC3)s1` [BRI-12451], the remaining activity at 30 µM on wild-type CysLT1R is 65.3%; at wild-type CysLT2R it was 61.2%.
Turning to `NC(=O)CN1CCN(C(=O)c2ccccc2NC(=O)c2ccc(Cl)cc2)CC1=O` [BRI-12454], the remaining activity at 30 µM at wild-type CysLT1R came out at 77.4%. In addition, at wild-type CysLT2R, the remaining activity at 30 µM was found to be 48.4%, the inhibition at 30 µM was at least 50% and the Emax was found to be 6 ± 10%.
For the molecule `Cc1ccc(-c2nnc(SCC(=O)NC(N)=O)nc2-c2ccc(C)cc2)cc1` [BRI-12360], the remaining activity at 30 µM came to 74.3% at wild-type CysLT1R and 90.5% at wild-type CysLT2R.
Consider `O=C(Cc1ccc(S(=O)(=O)CCO)cc1)Nc1ccc(-c2nc3cccc(Cl)c3s2)cc1` [BRI-12452], for which the remaining activity at 30 µM was found to be 76.5% on wild-type CysLT1R and 77.4% on wild-type CysLT2R.
In the case of `CC1(C(=O)Nc2ccc(C(=O)NCCC(=O)O)cc2)CCOCC1` [BRI-12476], the values for the remaining activity at 30 µM at wild-type CysLT1R and at wild-type CysLT2R were 90.1% and 66.4%, respectively.
Regarding `CC(C)(C)n1nnc(COC(=O)C2OCCc3ccccc32)n1` (centres unmarked) [BRI-12445], the results for the remaining activity at 30 µM on wild-type CysLT1R and on wild-type CysLT2R were 86.6% and 67.7%, respectively.
Turning to `Cc1nc2c(C(N)=O)cnn2c(C)c1CCC(=O)N(C)c1ccc2cc[nH]c2c1` [BRI-12448], the remaining activity at 30 µM stood at 95.9% on wild-type CysLT1R and 88.5% at wild-type CysLT2R.
In the same order, the values of `CC(C)(C)CNC(=O)c1ccc(C(=O)Nc2ccccc2CC(=O)O)cc1` [BRI-12407] are 83% and 70.4%.
In the case of `O=C(Nc1ccccc1C(=O)N1CCN2C(=O)NC(=O)C2C1)c1cccs1` (centres unmarked) [BRI-12307], the values for the remaining activity at 30 µM on wild-type CysLT1R and on wild-type CysLT2R were 84.6% and 110%, respectively.
For the molecule `O=C(O)CC(NC(=O)c1ccc2[nH]ccc2c1)c1ccccc1` (centres unmarked) [BRI-12361], the remaining activity at 30 µM at wild-type CysLT1R was 83.4%; on wild-type CysLT2R it was 91.3%.
Take `O=C(Cn1c(=O)[nH]c(=O)c2ccccc21)N1CCc2[nH]c3ccc(F)cc3c2C1` [BRI-12341]: the figures for the remaining activity at 30 µM on wild-type CysLT1R and on wild-type CysLT2R were 69.5% and 61.4%, respectively.
On to `O=C(O)Cn1ccc(NC(=O)CNC(=O)Cc2cccc(F)c2)n1` [BRI-12471], for which the remaining activity at 30 µM turned out to be 88.2% on wild-type CysLT1R and 50.7% on wild-type CysLT2R.
Consider `O=C(COC1CCCc2ccccc21)Nc1cccc(NC(=O)NCc2ccncc2)c1` (centres unmarked) [BRI-12405], for which, on wild-type CysLT1R, the remaining activity at 30 µM was 70%. On wild-type CysLT2R, the remaining activity at 30 µM is 40.6%, the inhibition at 30 µM was at least 50% and the Emax was determined as 23 ± 6%.
In the case of `O=C(Nc1ccc2c(c1)COC2)N1CCCCC1c1cn[nH]c1` (centres unmarked) [BRI-12312], the results for the remaining activity at 30 µM on wild-type CysLT1R and on wild-type CysLT2R were 77.4% and 87.2%, respectively.
In the same order, the values of `O=C(NCC(O)c1cccc(OCc2ccccc2)c1)c1cc(=O)[nH]c2ccc(F)cc12` (centres unmarked) [BRI-12409] are 73.3% and 62.3%.
For `O=C(O)CNC(=O)c1ccc(NC(=O)CCc2cccc(F)c2F)cc1` [BRI-12441], the remaining activity at 30 µM on wild-type CysLT1R was determined as 88.3%; on wild-type CysLT2R, 70.9%.
As to `O=C(O)c1c(F)cccc1NS(=O)(=O)N1CCc2ccccc2C1` [BRI-12304], the remaining activity at 30 µM worked out at 83.8% at wild-type CysLT1R and 106% at wild-type CysLT2R.
Turning to `O=C(O)CNC(=O)c1ccc(NS(=O)(=O)c2csc(-c3ccc(Cl)cc3)n2)cc1` [BRI-12433], the remaining activity at 30 µM at wild-type CysLT1R came out at 76.2%; at wild-type CysLT2R, 62.7%.
Take `Cc1cnnn1-c1ccc(NC(=O)c2cccc(NC(=O)CCCc3cccs3)c2)cc1` [BRI-12444]: the remaining activity at 30 µM worked out at 96.1% at wild-type CysLT1R and 68.2% at wild-type CysLT2R.
In the same order, the values of `CC(=O)Nc1ccccc1OS(=O)(=O)c1cccc2cc(C)cnc12` [BRI-12318] are 74.1% and 88.2%.
In the same order, the values of `NC(=O)c1ccc(CNC(=O)c2ccc(NC(=O)c3ccc(Cl)c(Cl)c3)cc2O)o1` [BRI-12418] are 65.4% and 67.9%.
On to `NS(=O)(=O)c1cc(C(=O)NCCc2ccc(OCC(=O)O)cc2)cs1` [BRI-12426], for which, at wild-type CysLT1R, the remaining activity at 30 µM was 72.6%. On wild-type CysLT2R, the remaining activity at 30 µM is 41.8%, the inhibition at 30 µM was at least 50% and the Emax was determined as 5 ± 9%.
With `Cc1ccc(C(NS(=O)(=O)c2ccc(C(=O)NCC(=O)O)cc2)c2ccccn2)cc1` (centres unmarked) [BRI-12437], the remaining activity at 30 µM was found to be 91.9% at wild-type CysLT1R and 80.5% at wild-type CysLT2R.
`c1ccc(C(CNc2ccc3nnnn3n2)c2c[nH]c3ccccc23)cc1` (centres unmarked) [BRI-12355]: the remaining activity at 30 µM at wild-type CysLT1R came out at 76.8%; at wild-type CysLT2R, 91.8%.
For the molecule `COc1ccc(N(CCC(=O)O)S(=O)(=O)c2csc(-c3ccc(F)cc3)n2)cc1` [BRI-12432], the results for the remaining activity at 30 µM at wild-type CysLT1R and at wild-type CysLT2R were 81% and 76.9%, respectively.
As to `Cc1ccccc1Nc1nc2sc(C(=O)NCCc3nnc4n3CCNC4=O)cc2s1` [BRI-12435], the figures for the remaining activity at 30 µM on wild-type CysLT1R and at wild-type CysLT2R were 54.5% and 77.1%, respectively. In addition, the inhibition at 30 µM on wild-type CysLT1R (HEK293, compound 30 µM, LTD4 at EC80, HEK293, wild-type CysLT1R, read-out: inhibition of LTD4-induced IP1 production, single-concentration screen) is at least 50%. Further, on wild-type CysLT1R (HEK293, read-out: CysLT1R (LTD4) % Max Inhibition ± SEM), the Emax worked out at 46 ± 20%.
In the case of `O=C(O)CNC(=O)Cc1ccc(NC(=O)c2n[nH]c3ccccc23)cc1` [BRI-12313], the remaining activity at 30 µM on wild-type CysLT1R is 88.6%; at wild-type CysLT2R, 110%.
Turning to `O=C(O)CNC(=O)c1ccc(NC(=O)c2cnc3ccccc3c2)cc1` [BRI-12440], the remaining activity at 30 µM on wild-type CysLT1R worked out at 95.2%; on wild-type CysLT2R it was 75%.
For the molecule `CNC(=O)c1cccc(NC(=O)CN2c3cccc4cccc(c34)S2(=O)=O)c1` [BRI-12322], the figures for the remaining activity at 30 µM at wild-type CysLT1R and at wild-type CysLT2R were 69.8% and 79.1%, respectively.
With `CN(CCOc1ccc(OCc2ccccc2)cc1)C(=O)c1cc(=O)[nH]c2ccc(F)cc12` [BRI-12404], the results for the remaining activity at 30 µM at wild-type CysLT1R and at wild-type CysLT2R were 83.8% and 67.3%, respectively.
The corresponding values for `CC(C)NC(=O)Nc1ccc(C(=O)Nc2ccc(OCC(=O)O)c(Cl)c2)cc1` [BRI-12420] are 91.7% and 64.2%.
Regarding `O=C(O)COc1cccc(CNC(=O)c2cnc(-c3ncccn3)s2)c1` [BRI-12427], on wild-type CysLT1R, the remaining activity at 30 µM was 78.7%. At wild-type CysLT2R, the remaining activity at 30 µM came out at 42.4%, the inhibition at 30 µM was at least 50% and the Emax is 15 ± 13%.
